Laboratory results from US20050171102A1, “Semicarbazide derivatives for combating thromboembolic diseases” (priority 2002, published 2005).
pIC50: −log10 of the molar value. Where a name gives a salt, the structure may show the parent alone.

What was measured:
FXa = FXa (Homo sapiens, UniProt P00742); test: Factor Xa inhibition (FXa-IC50), Table 3 'Affinity to Receptors'
Excerpt: The inhibition of factor Xa by the compounds according to the invention and the measurement of the anticoagulant and antithrombotic activity can be determined by conventional in-vitro or in-vivo methods.

TF/FVIIa = TF/FVIIa (Homo sapiens, UniProt P08709); test: TF/FVIIa inhibition (TF/FVIIa-IC50), Table 3 'Affinity to Receptors'
Chain of TF/FVIIa (P08709 213-466 limits assumed): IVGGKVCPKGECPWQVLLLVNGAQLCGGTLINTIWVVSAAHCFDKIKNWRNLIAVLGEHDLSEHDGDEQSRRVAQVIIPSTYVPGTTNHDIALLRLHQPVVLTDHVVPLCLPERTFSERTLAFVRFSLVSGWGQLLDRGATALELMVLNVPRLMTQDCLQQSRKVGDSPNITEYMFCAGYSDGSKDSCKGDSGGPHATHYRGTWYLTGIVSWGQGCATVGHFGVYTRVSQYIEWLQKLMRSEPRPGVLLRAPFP
Chain of TF/FVIIa (P08709 61-212 limits assumed): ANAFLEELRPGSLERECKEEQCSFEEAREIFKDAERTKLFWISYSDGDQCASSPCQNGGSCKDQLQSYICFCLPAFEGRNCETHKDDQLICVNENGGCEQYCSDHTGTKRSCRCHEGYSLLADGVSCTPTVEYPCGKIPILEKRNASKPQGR
Chain of TF/FVIIa (P13726 33-295 partner): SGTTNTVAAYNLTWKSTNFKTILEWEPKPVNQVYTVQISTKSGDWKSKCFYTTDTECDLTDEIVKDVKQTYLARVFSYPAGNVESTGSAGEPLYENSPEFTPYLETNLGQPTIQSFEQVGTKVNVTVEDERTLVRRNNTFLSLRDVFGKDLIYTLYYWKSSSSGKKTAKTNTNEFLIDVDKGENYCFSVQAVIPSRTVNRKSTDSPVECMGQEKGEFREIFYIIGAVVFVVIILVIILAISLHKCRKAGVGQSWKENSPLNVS

Chain of FXa (P00742 235-488 limits assumed): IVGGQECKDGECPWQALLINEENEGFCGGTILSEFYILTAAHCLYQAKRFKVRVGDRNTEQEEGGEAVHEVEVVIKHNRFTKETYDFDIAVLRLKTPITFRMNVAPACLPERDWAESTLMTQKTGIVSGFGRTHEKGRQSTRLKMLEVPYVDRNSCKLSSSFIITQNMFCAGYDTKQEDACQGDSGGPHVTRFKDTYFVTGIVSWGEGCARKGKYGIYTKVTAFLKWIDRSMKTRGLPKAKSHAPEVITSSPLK
Chain of FXa (P00742 41-179 limits assumed): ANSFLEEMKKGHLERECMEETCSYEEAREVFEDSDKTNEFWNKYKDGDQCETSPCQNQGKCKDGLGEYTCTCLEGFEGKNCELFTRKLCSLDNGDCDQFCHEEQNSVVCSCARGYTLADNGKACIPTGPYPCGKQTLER

Compound	melting point [°C]	pIC50 (FXa)	pIC50 (TF/FVIIa)
Cc1cc(NC(=O)NN(c2ccccc2)c2cccc(CN)c2)ccc1N1CCCCC1=O.Cl	172 to 173		
Cc1cc(NC(=O)NN(c2ccccc2)c2cccc(C#N)c2)ccc1N1CCOCC1 [5′, 1-(3-cyanophenyl)-4-[3-methyl-4-(morpholin-4-yl)phenyl]-1-phenylsemicarbazide]	115 to 116		
N#Cc1cccc(NN(C(=O)Nc2ccc(N3CCCCC3=O)cc2)c2ccccc2)c1 [5″, 1-(3-cyanophenyl)-4-[4-(2-oxopiperidin-1-yl)phenyl]-2-phenylsemicarbazide]	239 to 241		
N=C(N)c1cccc(NN(C(=O)Nc2ccc(N3CCOCC3=O)c(Cl)c2)c2ccccc2)c1 [Compound 4.AA, 1-(3-amidinophenyl)-4-[3-chloro-4-(3-oxomorpholin-4-yl)phenyl]-2-phenylsemicarbazide, hydrochloride]		7.70	7.57
Cc1cc(NC(=O)NN(c2ccccc2)c2cccc(C#N)c2)ccc1N1CCCCC1=O [Compound 6, 1-(3-cyanophenyl)-4-[3-methyl-4-(2-oxopiperidin-1-yl)phenyl]-1-phenylsemicarbazide]	161 to 162		
Cc1cc(NC(=O)NN(c2ccccc2)c2cccc(C(=N)N)c2)ccc1N1CCCCC1=O.Cl [Compound 10, 1-(3-amidinophenyl)-4-[3-methyl-4-(2-oxopiperidin-1-yl)phenyl]-1-phenylsemicarbazide, hydrochloride]	> 300	7.80	8.01
Cc1cc(NC(=O)N(Nc2cccc(C(=N)N)c2)c2ccccc2)ccc1N1CCCCC1=O.Cl [Compound 11, 1-(3-amidinophenyl)-4-[3-methyl-4-(2-oxopiperidin-1-yl)phenyl]-2-phenylsemicarbazide, hydrochloride]	> 300	8.07	8.29
Cc1cc(NC(=O)N(Nc2cccc(CN)c2)c2ccccc2)ccc1N1CCCCC1=O.Cl [Compound 13, 1-(3-aminomethylphenyl)-4-[3-methyl-4-(2-oxopiperidin-1-yl)phenyl]-2-phenylsemicarbazide, hydrochloride]	95 to 97	6.89	6.77
